Measurements: publication PMC5809559, “DYRK1A inhibition and cognitive rescue in a Down syndrome mouse model are induced by new fluoro-DANDY derivatives” (Scientific Reports, 2018)
Where “and” joins values, the source holds several entries; their conditions need not be identical. Identical values can stand only once. Like-named read-outs stand apart in the source and are kept apart here.

What was measured:
[1] = molecular target: T1, DYRK1A catalytic domain (DYRK1A-ΔC) (Rattus norvegicus, UniProt Q63470); assay: In vitro DYRK1A kinase inhibition, UFLC assay with fluorescent peptide substrate; format: biochemical; conditions: read-out: IC50, in vitro inhibition of DYRK1A
T1 construct: The cDNA coding for the catalytic domain (residues 1-502) of rat DYRK1A; 6xHis; made in house; host or cells: E. coli BL21(DE3), pET28

KB cells = assay: KB cell proliferation / cytotoxicity (CellTiter-Blue); format: cell-based; conditions: Homo sapiens; for inhibition at 1 µM / inhibition at 10 µM: 72 h; for inhibition at 1 µM: 10^−6 M, read-out: % Growth inhibition 10^−6 M; for inhibition at 10 µM: 10^−5 M, read-out: % Growth inhibition 10^−5 M
Procedure: Cancer cell lines were obtained from the American Type Culture Collection (Rockville, MD, USA) and were cultured according to the supplier’s instructions. Briefly, human KB epidermal carcinoma cells were grown in Dulbecco minimal essential medium (DMEM) containing 4.5 g/L glucose supplemented with 10% fetal calf serum (FCS) and 1% glutamine, 100 UI penicillin, 100 µg/mL streptomycin and 1.5 µg/mL fungizone and maintained at 37 °C in a humidified atmosphere containing 5% CO2. Cell viability was assessed using Promega CellTiter-Blue TM reagent according to the manufacturer’s instructions. Cells were seeded in 96-well plates (5 × 10^3 cells/well) containing […]. After 24 h of culture, the cells were supplemented with […] of the studied compound dissolved in DMSO (less than 0.1% in each preparation). After 72 h of incubation, […] of resazurin was added for 2 h before recording fluorescence (λex = 560 nm, λem = 590 nm) using a Victor microtiter plate fluorimeter (Perkin-Elmer, USA).

DYRK1A = molecular target: T2, DYRK1A (Homo sapiens, UniProt Q13627); assay: Inhibition of tau phosphorylation by DYRK1A in cellulo (HEK293 co-transfected with DYRK1A and Tau, ClariCELL ELISA phospho-TauT212); format: cell-based
T2 construct: vectors encoding full-length human DYRK1A and Tau; host or cells: HEK293

[2] = design: method as in PMID 27194478; conditions: other drugs acting on the central nervous system; cited from earlier work
[3] = 3,5-diaryl-7-azaindoles 4a-4f, Fig. 4
[4] = 3,5-diaryl-7-azaindoles 5a-5g, Fig. 5

Row | IC50 [1, 3] [nM] | IC50 [1, 4] | SMILES | also measured
1 |  | 191 nM | Oc1ccc(-c2cnc3[nH]cc(-c4ccc(F)cc4)c3c2)c(O)c1 [Compound 5b] | 
2 |  | 56.6 nM | Oc1ccc(-c2cnc3[nH]cc(-c4ccc(F)c(F)c4)c3c2)cc1O [Compound 5c] | inhibition at 1 µM (KB cells; KB): 6 ± 2%
3 |  | 232 nM | Oc1ccc(-c2cnc3[nH]cc(-c4ccc(F)c(F)c4)c3c2)c(O)c1 [Compound 5d] | 
4 |  | 476 nM | COc1ccc(-c2c[nH]c3ncc(-c4ccc(O)c(O)c4)cc23)cc1OC [Compound 5f] | 
5 |  | 9.34 nM and 9.3 nM | Oc1ccc(-c2cnc3[nH]cc(-c4ccc(O)c(F)c4)c3c2)cc1 [Compound 5g] | IC50 (DYRK1A; HEK293 transfected with DYRK1A and tau, 2 h incubation): 380 nM; Ratio between in cellulo and in vitro inhibitory potencies (DYRK1A; tau phosphorylation IC50 / in vitro DYRK1A IC50): 41; inhibition at 10 µM (KB cells; KB): 95 ± 1%; inhibition at 1 µM (KB cells; KB): 46 ± 1%; IC50 (KB cells; estimated, read-out: estimated IC50, KB cell growth inhibition): ~1000 nM

More lines, now with the values behind:

Row | SMILES | IC50 [1, 3] [nM] | IC50 [1, 4] | also measured
6 | COc1ccc(-c2cnc3[nH]cc(-c4ccc(F)cc4)c3c2)cc1OC [Compound 4a] | 1430 |  | 
7 | COc1ccc(-c2cnc3[nH]cc(-c4ccc(F)cc4)c3c2)c(OC)c1 [Compound 4b] | 920 |  | 
8 | COc1ccc(-c2cnc3[nH]cc(-c4ccc(F)c(F)c4)c3c2)cc1OC [Compound 4c] | 5260 |  | 
9 | COc1ccc(-c2cnc3[nH]cc(-c4ccc(F)c(F)c4)c3c2)c(OC)c1 [Compound 4d] | 37400 |  | 
10 | COc1ccc(-c2c[nH]c3ncc(-c4ccc(OCc5ccccc5)cc4)cc23)cc1F [Compound 4e] | 6090 |  | 
11 | COc1ccc(-c2c[nH]c3ncc(-c4ccc(OCc5ccccc5)c(OCc5ccccc5)c4)cc23)cc1OC [Compound 4f] | 18500 |  | 
12 | COc1ccc(-c2c[nH]c3ncc(-c4ccc(O)cc4)cc23)cc1F [Compound 5e] |  | 41.5 nM | inhibition at 10 µM (KB cells): 66 ± 3%; inhibition at 1 µM (KB cells): 30 ± 1%
13 | CC(NC(C)(C)C)C(=O)c1cccc(Cl)c1 (centres unmarked) [buproprion] |  |  | Kp (brain concentration/plasma concentration) [2]: 4.97
14 | CNCCC(Oc1ccc(C(F)(F)F)cc1)c1ccccc1 (centres unmarked) [fluoxetine] |  |  | Kp (brain concentration/plasma concentration) [2]: 5.23
15 | OCCN1CCN(CCCN2c3ccccc3Sc3ccc(Cl)cc32)CC1 [perphenazine] |  |  | Kp (brain concentration/plasma concentration) [2]: 7.12
